The values that follow come from patent US20210161877A1, “GASTROPROTECTED, HYDROPHOBIC FORMULATION OF AT LEAST ONE ACTIVE PRINCIPLE AND METHOD FOR OBTAINING SAME” (priority 2018, published 2021).

Each structure is given as a SMILES string. Bounds are passed on as bounds.

The nature of data set [1]: Stability of the particles in 0.1 N hydrochloric acid solution, HPLC assay. The note with it: 0.1 N HCl medium at 25° C., 500 ml, 20 mg of BZ, 120 minutes of incubation; percentage of the initial dose. The class given is physicochemical. Here is the method: Measurement of the stability of the particles in 0.1 N hydrochloric acid solution, via an HPLC assay method: • Column (ProntoSlL, Bischoff, Germany): C18, 5 μm, 120 Å, 4.6×150 mm, • Mobile phase: methanol, 65%/10 mM Na2HPO4, 35%, • Flow rate: 1.00 mL/min, • Temperature: 20° C. (thermostat), • Detection: UV (λ=310 nm) • Injection volume: 20 μL.
The stability is measured in 0.1 N HCl medium at 25° C., for a volume of 500 ml and 20 mg of BZ. The results collated in FIG. 2 are expressed as a percentage of the initial dose.

The nature of data set [2]: Test of gastroprotection and preliminary bioavailability on animals (oral administration). The note with it: rat, in vivo, fasted male Sprague-Dawley rats, 40 mg/kg of BZ. Here is the method: Test of gastroprotection and preliminary bioavailability on animals. In this test, the protective capacity of the BZ-AT formulation according to the invention as described in this example and of an unprotected form of BZ are compared.
Each formulation is administered orally to male Sprague-Dawley rats weighing between 175-250 g. Tests are performed with pure BZ and the BZ-AT form taken up at 10 mg/ml in the following aqueous solution:
The volume that may be administered is adjusted as a function of each animal to enable a dose of 4 mL/kg to be achieved, i.e. 40 mg/kg of BZ. The administration is performed orally on the fasted animal.

`COCCCOc1ccnc(C[S+]([O-])c2nc3ccccc3[nH]2)c1C` (stereo not shown) [BZ, 2-([4-(3-methoxypropoxy)-3-methylpyridin-2-yl]methylsulfinyl)-1H-benzo[d]imidazole]: the degradation in data set [1] is on record as 100%. Further, in data set [2], the AUC is less than 5 ng·h/mL, the peak level (Cmax) was 2.54 ng/mL and the Tmax was 48 min.

What is called AUC is the area under the concentration-time curve, a measure of exposure. Broadly, the Cmax is the maximum level reached in the sampled fluid or tissue. The term Tmax denotes the time at which the peak concentration occurs.
